Values of other authors as cited in US8753875B2, “Compositions and means for diagnosing microbial infections” (priority 2007, dated 2014).
Where two headings read alike, the source gives them in different places.

Legend:
E. coli [1] = conditions: cited from earlier work
E. coli [2] = conditions: 1142 E. coli outpatient urinary isolates, USA and Canada; cited from earlier work

Compound | Antimicrobial resistance of E. coli (resistance in percent) (E. coli [1]; Austria, n 126) [%] | Antimicrobial resistance of E. coli (resistance in percent) (E. coli [1]; Belgium, n 137) [%] | Antimicrobial resistance of E. coli (resistance in percent) (E. coli [1]; Canada, n 166) [%] | Antimicrobial resistance of E. coli (resistance in percent) (E. coli [1]; Denmark, n 85) [%] | Antimicrobial resistance of E. coli (resistance in percent) (E. coli [1]; Finland, n 182) [%] | Antimicrobial resistance of E. coli (resistance in percent) (E. coli [1]; France, n 199) [%] | Antimicrobial resistance of E. coli (resistance in percent) (E. coli [1]; Germany, n 138) [%] | Antimicrobial resistance of E. coli (resistance in percent) (E. coli [1]; Greece, n 132) [%] | Antimicrobial resistance of E. coli (resistance in percent) (E. coli [1]; Ireland, n 154) [%] | Antimicrobial resistance of E. coli (resistance in percent) (E. coli [1]; Luxembourg, n 24) [%] | Antimicrobial resistance of E. coli (resistance in percent) (E. coli [1]; Norway, n 168) [%] | Antimicrobial resistance of E. coli (resistance in percent) (E. coli [1]; Portugal, n 86) [%] | Antimicrobial resistance of E. coli (resistance in percent) (E. coli [1]; Spain, n 191) [%] | Antimicrobial resistance of E. coli (resistance in percent) (E. coli [1]; Sweden, n 193) [%] | Antimicrobial resistance of E. coli (resistance in percent) (E. coli [1]; Switzerland, n 122) [%] | Antimicrobial resistance of E. coli (resistance in percent) (E. coli [1]; The Netherlands, n 195) [%] | Antimicrobial resistance of E. coli (resistance in percent) (E. coli [1]; Total, n 2478) [%] | Antimicrobial resistance of E. coli (resistance in percent) (E. coli [1]; United Kingdom, n 180) [%] | Overall resistance in E. coli (E. coli [2]) [%]
CC1=C(C(=O)O)N2C(=O)C(NC(=O)C(N)c3ccc(O)cc3)C2SC1 (stereo not drawn) [CFR, 8-[2-amino-2-(4-hydroxyphenyl)-acetyl]amino-4-methyl-7-oxo-2-thia-6-azabicyclo [4.2.0] oct-4-ene-5-carboxylic acid] | 0.8 | 0.7 | 1.8 | 1.2 | 1.6 | 1.0 | 1.4 | 3.0 | 0.6 | 0 | 2.4 | 2.3 | 3.1 | 5.2 | 0.8 | 4.6 | 2.1 | 1.7 | 
O=C(O)c1cn(C2CC2)c2cc(N3CCNCC3)c(F)cc2c1=O [CIP, 1-cyclopropyl-6-fluoro-4-oxo-7-piperazin-1-yl-quinoline-3-carboxylic acid] | 0 | 2.9 | 0 | 0 | 0.5 | 2.0 | 2.2 | 1.5 | 0 | 4.2 | 0 | 5.8 | 14.7 | 0 | 2.5 | 2.1 | 2.3 | 0.6 | 5.5
C[C@@H]1O[C@@H]1P(=O)(O)O [FOF, [(2R,3S)-3-methyloxiran-2-yl]phosphonic acid] | 0 | 0.7 | 0.6 | 1.2 | 1.1 | 1.0 | 0 | 1.5 | 1.3 | 0 | 1.2 | 0 | 0.5 | 0.5 | 0.8 | 0.5 | 0.7 | 0 | 
CNC(C)C1CCC(N)C(OC2C(N)CC(N)C(OC3OCC(C)(O)C(NC)C3O)C2O)O1 (stereo not drawn) [GEN, 2-[4,6-diamino-3-[3-amino-6-(1-methylaminoethyl)tetrahydropyran-2-yl]oxy-2-hydroxy-cyclohexoxy]-5-methyl-4-methylamino-tetrahydropyran-3,5-diol] | 0.8 | 0.7 | 0.6 | 0 | 0.5 | 0 | 0.7 | 0.8 | 0.6 | 0 | 0 | 3.5 | 4.7 | 0 | 3.3 | 0.5 | 1.0 | 0 | 
CCn1cc(C(=O)O)c(=O)c2ccc(C)nc21 [NAL, 1-ethyl-7-methyl-4-oxo-[1,8]naphthyridine-3-carboxylic acid] | 2.4 | 6.6 | 0.6 | 3.5 | 1.6 | 3.5 | 3.6 | 6.8 | 1.9 | 8.3 | 1.2 | 11.6 | 26.7 | 2.6 | 6.6 | 5.1 | 5.4 | 2.2 | 
Cc1cc(NS(=O)(=O)c2ccc(N)cc2)no1 [SUL, 4-amino-N-(5-methylisoxazol-3-yl)-benzenesulfonamide] | 25.4 | 32.8 | 25.3 | 21.2 | 15.4 | 31.7 | 34.8 | 19.7 | 40.3 | 25.0 | 25.0 | 44.2 | 48.7 | 16.6 | 31.1 | 25.6 | 29.1 | 31.7 | 
C[C@H]1COc2c(N3CCN(C)CC3)c(F)cc3c(=O)c(C(=O)O)cn1c23 [levofloxacin, (−)-(S)-9-fluoro-2,3-dihydro-3-methyl-10-(4-methyl-1-piperazinyl)-7-oxo-7H-pyrido [1,2,3-de]-1,4-benzoxazine-6-carboxylic acid] |  |  |  |  |  |  |  |  |  |  |  |  |  |  |  |  |  |  | 5.1
co-amoxiclav [AMC] | 2.4 | 2.9 | 3.6 | 1.2 | 4.9 | 1.5 | 2.2 | 0.8 | 5.8 | 0 | 3.6 | 9.3 | 4.2 | 5.7 | 2.5 | 2.6 | 3.4 | 2.8 | 
trimethoprim/sulfamethoxazole [SXT] | 9.5 | 14.6 | 12.0 | 8.2 | 4.9 | 15.1 | 21.0 | 11.4 | 20.8 | 16.7 | 11.3 | 26.7 | 25.7 | 8.3 | 18.9 | 10.3 | 14.1 | 12.2 | 21.3
